Tested on: sera from Swedish blood donors negative for HIV-1 and HIV-2 antibodies
Test: Specificity ELISA (Example 12, Figure 3), negative control sera
Assay type: binding, human
Settings: 20 negative control sera; positive O.D. above 0.150
Text: In the Figures forming a portion of the disclosure of this invention: • Figure 1 illustrates a portion of the STLV-IIImac TMP amino acid residue sequence. The sequence is shown from left to right and in the direction of amino-terminus to carboxy-terminus in a single-letter code. The residue positions have been numbered as illustrated from 1-33. • Figure 2 illustrates, in a manner similar to Figure 1, a portion of the amino acid residue sequence of the HIV-1 TMP and represent gp41 amino acid residues […] as described in Ratner et al., Nature, 313:277-283 (1985). However, for ease of discussion, those residue positions have been renumbered as illustrated from 1-32. • Figure 3 contains 2 panels illustrating antibody determinations using a diagnostic system of this invention to assay (a) 20 sera from individuals in Guinea-Bissau previously determined to have antibodies against HIV-related viruses (West Africans), (b) 20 sera from HIV-1-infected individuals and (c) 20 sera from blood donors without antibodies to HIV-1 or HIV-2. Sera were considered positive (closed symbols) when they produced optical density (O.D.) values above 0.150 (the mean O.D. of negative samples plus 6 standard deviations). Negative sera are represented by open symbols. […]

AIEKYLEDQAQLNAWCAFRQVC [p80]
immunoreaction with sera: did not produce any substantial immunoreaction
